Key:
AZD6482 + Tozasertib = compound: Cc1cc([C@@H](C)Nc2ccccc2C(=O)O)c2nc(N3CCOCC3)cc(=O)n2c1 [AZD6482] + Cc1cc(Nc2cc(N3CCN(C)CC3)nc(Sc3ccc(NC(=O)C4CC4)cc3)n2)n[nH]1 [Tozasertib] (partner 0.1 µM); experiment: relative viability (nuclei count vs DMSO), 5 days (fraction); higher = more cells survive
In short: (§1)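 For relative viability, nuclei counts in treated wells were divided by those in vehicle wells. Lung cancer cell lines had been pin-tool dosed in 1536-well plates the day after seeding and cultured for 5 days, then fixed and stained in one step (final 0.05% Triton X-100, 1% formaldehyde, 1 ug/ml Hoechst) and imaged at 4×. Doses were one drug alone or a fixed anchor-drug dose plus five library-drug doses (not always all listed) in √10 steps, and values are duplicate-plate medians.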

[1] = compound: COc1cc2nc(N3CCCN(C)CC3)nc(NC3CCN(Cc4ccccc4)CC3)c2cc1OC + COc1cc2c(Oc3ccc(NC(=O)C4(C(=O)Nc5ccc(F)cc5)CC4)cc3F)ccnc2cc1OCCCN1CCOCC1 [Foretinib] (partner 0.25 µM); experiment: as above
In short: as §1

Which results are given for NCI-H441?
relative viability (AZD6482 + Tozasertib; first compound 0.08 µM): 0.631; relative viability (AZD6482 + Tozasertib; first compound 0.253 µM): 0.545; relative viability (AZD6482 + Tozasertib; first compound 0.8 µM): 0.632; relative viability (AZD6482 + Tozasertib; first compound 8 µM): 0.527; relative viability ([1]; first compound 0.2 µM): 0.957; relative viability ([1]; first compound 0.6325 µM): 0.954; relative viability ([1]; first compound 2 µM): 0.928; relative viability ([1]; first compound 6.325 µM): 1.02

With EPLC-272H as the cell line, how does the relative viability (AZD6482 + Tozasertib; first compound 0.08 µM) read?
Its relative viability is 0.185.

What about the relative viability (AZD6482 + Tozasertib; first compound 0.253 µM) of the same cell line?
Its relative viability is 0.111.

What about the relative viability (AZD6482 + Tozasertib; first compound 0.8 µM) of the same cell line?
Its relative viability is 0.211.

What about the relative viability (AZD6482 + Tozasertib; first compound 2.53 µM) of the same cell line?
Its relative viability is 0.277.

What about the relative viability (AZD6482 + Tozasertib; first compound 8 µM) of the same cell line?
The relative viability was 0.157.

And the relative viability ([1]; first compound 0.2 µM)?
The relative viability was 0.783.

What about the relative viability ([1]; first compound 0.6325 µM) of the same cell line?
The relative viability was 0.723.

What about the relative viability ([1]; first compound 2 µM) of the same cell line?
The relative viability was 0.847.

And the relative viability ([1]; first compound 6.325 µM)?
Its relative viability is 0.686.

— the supplement of paper PMC10307832
